This is an account of results in patent US9040545B2, “Heterocyclyl pyrazolopyrimidine analogues as selective JAK inhibitors” (Cellzome Limited, priority 2010, dated 2015).

By IC50 is commonly meant the concentration that gives 50% inhibition.

In one assay the target is T1, JAK2 (Homo sapiens, UniProt O60674).
T1 construct: endogenous in cells; host or cells: mixed Molt4/Ramos lysate (1:2)
Briefly: Kinobeads assay, JAK2. It is filed as binding. As to conditions: mixed Molt4/Ramos lysate, read-out: Inhibition values (IC50) JAK2. How it is done: (§1) The compounds of the present invention as described in the previous examples were tested in a Kinobeads™ assay as described for ZAP-70 (WO-A 2007/137867). Briefly, test compounds (at various concentrations) and the affinity matrix with the immobilized aminopyrido-pyrimidine ligand 24 were added to cell lysate aliquots and allowed to bind to the proteins in the lysate sample. After the incubation time the beads with captured proteins were separated from the lysate. Bound proteins were then eluted and the presence of JAK2 and JAK3 was detected and quantified using specific antibodies in a dot blot procedure and the Odyssey infrared detection system. Dose response curves for individual kinases were generated and IC50 values calculated. Kinobeads™ assays for ZAP-70 (WO-A 2007/137867) and for kinase selectivity profiling (WO-A 2006/134056) have been previously described.
(§2) The affinity matrix was washed two times with 15 mL of 1×DP buffer containing 0.2% NP40 (IGEPAL® CA-630, Sigma, #I3021) and then resuspended in 1×DP buffer containing 0.2% NP40 (3% beads slurry).
(§3) 5×DP buffer 250 mM Tris-HCl pH 7.4, 25% Glycerol, 7.5 mM MgCl2, 750 mM NaCl, 5 mM Na3VO4; filter the 5×DP buffer through a 0.22 μm filter and store in aliquots at −80° C. The 5×DP buffer is diluted with H2O to 1×DP buffer containing 1 mM DTT and 25 mM NaF.
(§4) Stock solutions of test compounds were prepared in DMSO. In a 96 well plate 30 μL solution of diluted test compounds at 5 mM in DMSO were prepared. Starting with this solution a 1:3 dilution series (9 steps) was prepared. For control experiments (no test compound) a buffer containing 2% DMSO was used.
Molt4 cells (ATCC catalogue number CRL-1582) and Ramos cells (ATCC catalogue number CRL-1596) were grown in 1 L Spinner flasks (Integra Biosciences, #182101) in suspension in RPMI 1640 medium (Invitrogen, #21875-034) supplemented with 10% Fetal Bovine Serum (Invitrogen) at a density between 0.15×106 and 1.2×10^6 cells/mL. Cells were harvested by centrifugation, washed once with 1×PBS buffer (Invitrogen, #14190-094) and cell pellets were frozen in liquid nitrogen and subsequently stored at −80° C. Cells were homogenized in a Potter S homogenizer in lysis buffer: 50 mM Tris-HCl, 0.8% NP40, 5% glycerol, 150 mM NaCl, 1.5 mM MgCl2, 25 mM NaF, 1 mM sodium vanadate, 1 mM DTT, pH 7.5. One complete EDTA-free tablet (protease inhibitor cocktail, Roche Diagnostics, 1873580) per 25 mL buffer was added. The material was dounced 10 times using a mechanized POTTER S, transferred to 50 mL falcon tubes, incubated for 30 minutes on ice and spun down for 10 minutes at 20,000 g at 4° C. (10,000 rpm in Sorvall SLA600, precooled). The supernatant was transferred to an ultracentrifuge (UZ)-polycarbonate tube (Beckmann, 355654) and spun for 1 hour at 100,000 g at 4° C. (33.500 rpm in Ti50.2, precooled). The supernatant was transferred again to a fresh 50 mL falcon tube, the protein concentration was determined by a Bradford assay (BioRad) and samples containing 50 mg of protein per aliquot were prepared. The samples were immediately used for experiments or frozen in liquid nitrogen and stored frozen at −80° C.
(§5) Cell lysate (approximately 50 mg protein per plate) was thawed in a water bath at room temperature and then stored on ice. To the thawed cell lysate 1×DP 0.8% NP40 buffer containing protease inhibitors (1 tablet for 25 mL buffer; EDTA-free protease inhibitor cocktail; Roche Diagnostics 1873580) was added in order to reach a final protein concentration of 10 mg/mL total protein. The diluted cell lysate was stored on ice. Mixed Molt4/Ramos lysate was prepared by combining one volume of Molt4 lysate and two volumes of Ramos lysate (ratio 1:2).
To a 96 well filter plate (Multiscreen HTS, BV Filter Plates, Millipore #MSBVN1250) were added per well: 100 μL affinity matrix (3% beads slurry), 3 μL of compound solution, and 50 μL of diluted lysate. […]

Another assay concerns the target T2, Aurora A (Homo sapiens, UniProt O14965).
T2 construct: cell lysates from Jurkat cells (ATCC TIB-152) used; endogenous in cells; host or cells: Jurkat cells (ATCC TIB-152), treated with pervanadate
T2 sequence (O14965 1-403): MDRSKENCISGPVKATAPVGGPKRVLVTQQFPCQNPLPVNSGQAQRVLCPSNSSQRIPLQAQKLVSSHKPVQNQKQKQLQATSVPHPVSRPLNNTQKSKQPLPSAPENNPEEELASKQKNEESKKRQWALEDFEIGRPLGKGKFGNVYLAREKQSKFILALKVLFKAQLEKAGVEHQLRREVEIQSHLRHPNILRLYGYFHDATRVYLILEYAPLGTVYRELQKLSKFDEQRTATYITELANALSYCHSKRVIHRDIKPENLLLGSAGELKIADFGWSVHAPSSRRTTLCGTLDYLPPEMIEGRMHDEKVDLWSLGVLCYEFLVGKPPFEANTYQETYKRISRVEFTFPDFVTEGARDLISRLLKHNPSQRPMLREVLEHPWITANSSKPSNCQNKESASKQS
Kind of assay: Kinobeads assay, Aurora A. It is filed as binding. Particulars: for IC50: lysate of pervanadate-treated Jurkat cells, read-out: Inhibition values (IC50) Aur A. How it is done:
as §1, §2, §3, §4, §5
To a 96 well filter plate (Multiscreen HTS, BV Filter Plates, Millipore #MSBVN1250) were added per well: 100 μL affinity matrix (3% beads slurry), 3 μL of compound solution, and 50 μL of diluted lysate. Plates were sealed and incubated for 3 hours in a cold room on a plate shaker (Heidolph tiramax 1000) at 750 rpm. Afterwards the plate was washed 3 times with 230 μL washing buffer (1×DP 0.4% NP40). The filter plate was placed on top of a collection 1 plate (Greiner bio-one, PP-microplate 96 well V-shape, 65120) and the beads were then eluted with 20 μL of sample buffer (100 mM Tris, pH 7.4, 4% SDS, 0.00025% bromophenol blue, 20% glycerol, 50 mM DTT). The eluate was frozen quickly at −80° C. and stored at −20° C.
The kinases in the eluates were detected and quantified by spotting on nitrocellulose membranes and using a first antibody directed against the kinase of interest and a fluorescently labelled secondary antibody (anti-rabbit IRDye™ antibody 800 (Licor, #926-32211). The Odyssey Infrared Imaging system from LI-COR Biosciences (Lincoln, Nebr., USA) was operated according to instructions provided by the manufacturer (Schutz-Geschwendener et al, 2004. Quantitative, two-color Western blot detection with infrared fluorescence. Published May 2004 by LI-COR Biosciences, www.licor.com).
After spotting of the eluates the nitrocellulose membrane (BioTrace NT; PALL, #BTNT30R) was first blocked by incubation with Odyssey blocking buffer (LICOR, 927-40000) for 1 hour at room temperature. Blocked membranes were then incubated for 16 hours at the temperature shown in Table 5 with the first antibody diluted in Odyssey blocking buffer (LICOR #927-40000). Afterwards the membrane was washed twice for 10 minutes with PBS buffer containing 0.2% Tween 20 at room temperature. […]

T1 sequence (O60674 whole entry): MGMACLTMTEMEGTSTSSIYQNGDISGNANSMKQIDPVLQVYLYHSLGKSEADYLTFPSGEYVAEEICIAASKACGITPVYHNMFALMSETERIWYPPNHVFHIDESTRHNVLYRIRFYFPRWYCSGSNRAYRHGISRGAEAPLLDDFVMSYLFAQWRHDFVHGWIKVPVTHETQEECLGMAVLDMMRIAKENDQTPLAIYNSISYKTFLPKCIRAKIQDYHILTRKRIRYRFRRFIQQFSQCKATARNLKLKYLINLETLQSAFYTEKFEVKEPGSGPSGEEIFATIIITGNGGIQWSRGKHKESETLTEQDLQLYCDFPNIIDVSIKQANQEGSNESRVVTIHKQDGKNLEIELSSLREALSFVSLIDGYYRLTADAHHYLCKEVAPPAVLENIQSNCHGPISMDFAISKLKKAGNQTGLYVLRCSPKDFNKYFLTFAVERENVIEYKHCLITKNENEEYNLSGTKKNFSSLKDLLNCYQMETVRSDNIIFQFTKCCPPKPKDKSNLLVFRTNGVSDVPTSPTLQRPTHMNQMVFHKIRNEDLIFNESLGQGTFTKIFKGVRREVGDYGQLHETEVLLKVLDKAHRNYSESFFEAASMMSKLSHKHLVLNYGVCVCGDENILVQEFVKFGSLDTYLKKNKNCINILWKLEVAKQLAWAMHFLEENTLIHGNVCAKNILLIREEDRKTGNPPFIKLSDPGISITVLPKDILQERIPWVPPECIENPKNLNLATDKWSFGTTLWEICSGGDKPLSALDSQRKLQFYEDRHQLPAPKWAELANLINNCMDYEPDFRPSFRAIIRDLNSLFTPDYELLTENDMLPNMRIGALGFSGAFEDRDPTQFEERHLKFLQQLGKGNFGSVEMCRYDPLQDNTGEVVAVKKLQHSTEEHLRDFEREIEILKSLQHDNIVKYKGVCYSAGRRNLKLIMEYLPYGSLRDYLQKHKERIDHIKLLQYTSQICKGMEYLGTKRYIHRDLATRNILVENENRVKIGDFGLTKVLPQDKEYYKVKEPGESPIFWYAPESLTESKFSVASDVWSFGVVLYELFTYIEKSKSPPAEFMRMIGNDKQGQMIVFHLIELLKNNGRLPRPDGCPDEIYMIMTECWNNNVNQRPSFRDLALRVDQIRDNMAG

As to `O=C1COCCN1c1cccc(Cn2ncc3cnc(Nc4cnn(CCO)c4)nc32)c1` [Example 29, 4-(3-((6-((1-(2-Hydroxyethyl)-1H-pyrazol-4-yl)amino)-1H-pyrazolo[3,4-d]pyrimidin-1-yl)methyl)phenyl)morpholin-3-one], the half-maximal inhibitory concentration (IC50) at JAK2 was ≥ 10000 nM. Further, on Aurora A, the “JAK3/AurA Fold Selectivity” value is given as 3-10 Fold and the IC50 lay in the range of 100 to 1000 nM.

`O=C1CCCN1CCCn1cc(Nc2ncc3cnn(Cc4cccc(N5CCOCC5)c4)c3n2)cn1` [Example 30, 1-(3-(4-((1-(3-Morpholinobenzyl)-1H-pyrazolo[3,4-d]pyrimidin-6-yl)amino)-1H-pyrazol-1-yl)propyl)pyrrolidin-2-one]: the IC50 on JAK2 was ≥ 10000 nM; on Aurora A it was 100 to 1000 nM. For the same molecule, the “JAK3/AurA Fold Selectivity” value on Aurora A is 10-50 Fold.

Turning to `CN(C)CC1(Cn2cc(Nc3ncc4cnn(Cc5cccc(N6CCOCC6)c5)c4n3)cn2)COC1` [Example 31, N-(1-((3-((Dimethylamino)methyl)oxetan-3-yl)methyl)-1H-pyrazol-4-yl)-1-(3-morpholinobenzyl)-1H-pyrazolo[3,4-d]pyrimidin-6-amine], the concentration for half-maximal inhibition (IC50) at JAK2 was ≥ 10000 nM. Moreover, at Aurora A, the “JAK3/AurA Fold Selectivity” value is reported as 3-10 Fold and the half-inhibitory concentration (IC50) was in the range of 100 to 1000 nM.

Take `CC(CN(C)C)Cn1cc(Nc2ncc3cnn(Cc4cccc(N5CCOCC5)c4)c3n2)cn1` (stereo not drawn) [Example 32, N-(1-(3-(Dimethylamino)-2-methylpropyl)-1H-pyrazol-4-yl)-1-(3-morpholinobenzyl)-1H-pyrazolo[3,4-d]pyrimidin-6-amine]: the IC50 at JAK2 was ≥ 10000 nM. For the same molecule, at Aurora A, the “JAK3/AurA Fold Selectivity” value is reported as 10-50 Fold and the IC50 lay within 1000 to 10000 nM.

Regarding `CN(C)CC(O)Cn1cc(Nc2ncc3cnn(Cc4cccc(N5CCOCC5)c4)c3n2)cn1` (stereo not drawn) [Example 33, 1-(Dimethylamino)-3-(4-((1-(3-morpholinobenzyl)-1H-pyrazolo[3,4-d]pyrimidin-6-yl)amino)-1H-pyrazol-1-yl)propan-2-ol], the IC50 on JAK2 was ≥ 10000 nM; on Aurora A it was 1000 to 10000 nM. Moreover, at Aurora A, the “JAK3/AurA Fold Selectivity” value is recorded as >50 Fold.

For `NCCCn1cc(Nc2ncc3cnn(Cc4cccc(N5CCOCC5)c4)c3n2)cn1` [Example 34, N-(1-(3-Aminopropyl)-1H-pyrazol-4-yl)-1-(3-morpholinobenzyl)-1H-pyrazolo[3,4-d]pyrimidin-6-amine], the IC50 on JAK2 was ≥ 10000 nM. Moreover, on Aurora A, the “JAK3/AurA Fold Selectivity” value is given as 10-50 Fold and the IC50 is 100 to 1000 nM.

As for `O=C(CCn1cc(Nc2ncc3cnn(Cc4cccc(N5CCOCC5)c4)c3n2)cn1)NC1CC1` [Example 35, N-Cyclopropyl-3-(4-((1-(3-morpholinobenzyl)-1H-pyrazolo[3,4-d]pyrimidin-6-yl)amino)-1H-pyrazol-1-yl)propanamide], on JAK2, the IC50 is ≥ 10000 nM. At Aurora A, the “JAK3/AurA Fold Selectivity” value was 10-50 Fold and the IC50 fell in the range of 100 to 1000 nM.

On to `Cn1cc(Nc2ncc3cnn(Cc4cccc(N5CCNCC5=O)c4)c3n2)cn1` [Example 36, 1-(3-((6-((1-Methyl-1H-pyrazol-4-yl)amino)-1H-pyrazolo[3,4-d]pyrimidin-1-yl)methyl)phenyl)piperazin-2-one], for which the IC50 at JAK2 was ≥ 10000 nM. Also, at Aurora A, the “JAK3/AurA Fold Selectivity” value is reported as 10-50 Fold and the half-inhibitory concentration (IC50) fell in the range of 100 to 1000 nM.

`Cn1cc(Nc2ncc3cnn(Cc4cc(N5CCOCC5)cc(F)c4F)c3n2)cn1` [Example 37, 1-(2,3-Difluoro-5-morpholinobenzyl)-N-(1-methyl-1H-pyrazol-4-yl)-1H-pyrazolo[3,4-d]pyrimidin-6-amine]: on JAK2, the half-maximal inhibitory concentration (IC50) is ≥ 10000 nM. Besides, on Aurora A, the “JAK3/AurA Fold Selectivity” value is recorded as 10-50 Fold and the IC50 lay in the range of 1000 to 10000 nM.

Take `Cn1cc(Nc2ncc3cnn(Cc4c(F)ccc(N5CCOCC5)c4F)c3n2)cn1` [Example 38, 1-(2,6-Difluoro-3-morpholinobenzyl)-N-(1-methyl-1H-pyrazol-4-yl)-1H-pyrazolo[3,4-d]pyrimidin-6-amine]: the IC50 on JAK2 is ≥ 10000 nM; at Aurora A it was 100 to 1000 nM. On Aurora A, the “JAK3/AurA Fold Selectivity” value was 10-50 Fold.

`OCCn1cc(Nc2ncc3cnn(Cc4cccc(N5CCOCC5)c4F)c3n2)cn1` [Example 39, 2-(4-((1-(2-Fluoro-3-morpholinobenzyl)-1H-pyrazolo[3,4-d]pyrimidin-6-yl)amino)-1H-pyrazol-1-yl)ethanol]: the IC50 at JAK2 lay within 1000 to 10000 nM. In addition, at Aurora A, the “JAK3/AurA Fold Selectivity” value is 10-50 Fold and the IC50 was 100 to 1000 nM.

As for `Cn1cc(Nc2ncc3cnn(Cc4cccc(N5CCOCC5=O)c4F)c3n2)cn1` [Example 40, 4-(2-Fluoro-3-((6-((1-methyl-1H-pyrazol-4-yl)amino)-1H-pyrazolo[3,4-d]pyrimidin-1-yl)methyl)phenyl)morpholin-3-one], the IC50 at JAK2 lay in the range of 1000 to 10000 nM. At Aurora A, the “JAK3/AurA Fold Selectivity” value is reported as 10-50 Fold and the concentration for half-maximal inhibition (IC50) was in the range of 100 to 1000 nM.

In the case of `CNCC1(Cn2cc(Nc3ncc4cnn(Cc5cccc(N6CCOCC6)c5)c4n3)cn2)COC1` [Example 41, N-(1-((3-((Methylamino)methyl)oxetan-3-yl)methyl)-1H-pyrazol-4-yl)-1-(3-morpholinobenzyl)-1H-pyrazolo[3,4-d]pyrimidin-6-amine], the IC50 on JAK2 was ≥ 10000 nM. At Aurora A, the “JAK3/AurA Fold Selectivity” value is reported as 10-50 Fold and the IC50 is 1000 to 10000 nM.
